# Legend:
# [1] = tested on: Escherichia coli; experiment: Antibacterial activity against Escherichia coli BER1 producing beta-lactamase pI 5.2 and pI 5.4 by microdilution method; type: functional
# [2] = tested on: Escherichia coli; experiment: Antibacterial activity against rifampin-resistant Escherichia coli C600 transconjugant producing beta-lactamase of pI 5.2 by microdilution method; type: functional
# [3] = tested on: Escherichia coli; experiment: Antibacterial activity against Escherichia coli DH5alpha producing beta-lactamase TEM-158 by microdilution method; type: functional
# [4] = tested on: Escherichia coli; experiment: Antibacterial activity against Escherichia coli DH5alpha producing beta-lactamase TEM-12 by microdilution method; type: functional
# [5] = tested on: Escherichia coli; experiment: Antibacterial activity against Escherichia coli DH5alpha producing beta-lactamase TEM-35 by microdilution method; type: functional
# [6] = tested on: Escherichia coli; experiment: Antibacterial activity against Escherichia coli DH5alpha producing beta-lactamase TEM-1 by microdilution method; type: functional
# [7] = tested on: Escherichia coli; experiment: Antibacterial activity against Escherichia coli DH5alpha by microdilution method; type: functional
# [8] = tested on: Escherichia coli; experiment: Antibacterial activity against rifampin-resistant Escherichia coli C600 by microdilution method; type: functional
# [9] = Inhibition of Escherichia coli DH5alpha beta-lactamase TEM-12
# [10] = Inhibition of Escherichia coli CF0042 beta-lactamase TEM-35
# [11] = Inhibition of Escherichia coli DH5alpha CL1179 clone beta-lactamase TEM-152 after 10 mins
# [12] = Inhibition of Escherichia coli DH10B beta-lactamase TEM-121 after 10 mins; design: species or system Escherichia coli str. K-12 substr. DH10B
# [13] = Inhibition of Escherichia coli TO799 beta-lactamase TEM-125 after 10 mins
IC50 [11],IC50 [12],IC50 [13],Compound,MIC [1],MIC [2],MIC [3],MIC [4],MIC [5],MIC [6],MIC [7],MIC [8],IC50 [9],IC50 [10]
,,,CO/N=C(\C(=O)N[C@@H]1C(=O)N2C(C(=O)[O-])=C(C[N+]3(C)CCCC3)CS[C@H]12)c1csc(N)n1,4 µg/mL,4 µg/mL,4 µg/mL,1 µg/mL,< 0.06 µg/mL,< 0.06 µg/mL,< 0.06 µg/mL,< 0.06 µg/mL,,
,,,CC1(C)S[C@@H]2[C@H](NC(=O)[C@H](N)c3ccc(O)cc3)C(=O)N2[C@H]1C(=O)O [AMOXICILLIN],> 2050 µg/mL,> 2050 µg/mL,> 2050 µg/mL,> 2050 µg/mL,> 2050 µg/mL,> 2050 µg/mL,4 µg/mL,4 µg/mL,,
,,,C[C@H]1[C@H](NC(=O)/C(=N\OC(C)(C)C(=O)O)c2csc(N)n2)C(=O)N1S(=O)(=O)O [AZTREONAM],1 µg/mL,1 µg/mL,1 µg/mL,4 µg/mL,,,,,,
,,,CO/N=C(\C(=O)N[C@@H]1C(=O)N2C(C(=O)O)=C(COC(C)=O)CS[C@H]12)c1csc(N)n1 [CEFOTAXIME],0.25 µg/mL,0.25 µg/mL,0.25 µg/mL,0.12 µg/mL,0.06 µg/mL,0.06 µg/mL,0.06 µg/mL,0.06 µg/mL,,
,,,CO[C@@]1(NC(=O)Cc2cccs2)C(=O)N2C(C(=O)O)=C(COC(N)=O)CS[C@@H]21 [CEFOXITIN],0.25 µg/mL,4 µg/mL,4 µg/mL,4 µg/mL,4 µg/mL,4 µg/mL,4 µg/mL,4 µg/mL,,
,,,CC(C)(O/N=C(\C(=O)N[C@@H]1C(=O)N2C(C(=O)[O-])=C(C[n+]3ccccc3)CS[C@H]12)c1csc(N)n1)C(=O)O [CEFTAZIDIME],16 µg/mL,16 µg/mL,32 µg/mL,32 µg/mL,0.25 µg/mL,0.12 µg/mL,0.12 µg/mL,0.12 µg/mL,,
,,,CO/N=C(\C(=O)N[C@@H]1C(=O)N2C(C(=O)O)=C(COC(N)=O)CS[C@H]12)c1ccco1 [CEFUROXIME],8 µg/mL,4 µg/mL,8 µg/mL,8 µg/mL,8 µg/mL,4 µg/mL,4 µg/mL,4 µg/mL,,
,,,CC(=O)OCC1=C(C(=O)O)N2C(=O)[C@@H](NC(=O)Cc3cccs3)[C@H]2SC1 [CEPHALOTHIN],32 µg/mL,16 µg/mL,32 µg/mL,8 µg/mL,16 µg/mL,4 µg/mL,4 µg/mL,4 µg/mL,,
1000 nM,1000 nM,13600 nM,O=C(O)[C@H]1/C(=C/CO)O[C@@H]2CC(=O)N21 [CLAVULANIC ACID],,,,,,,,,20 nM,27000 nM
,,,C[C@@H](O)[C@H]1C(=O)N2C(C(=O)O)=C(SCCNC=N)C[C@H]12 [IMIPENEM ANHYDROUS],,,,0.25 µg/mL,,,,,,
,,,CCN1CCN(C(=O)N[C@@H](C(=O)N[C@@H]2C(=O)N3[C@@H]2SC(C)(C)[C@@H]3C(=O)O)c2ccccc2)C(=O)C1=O [PIPERACILLIN],2050 µg/mL,2050 µg/mL,2050 µg/mL,> 2050 µg/mL,> 2050 µg/mL,512 µg/mL,2 µg/mL,2 µg/mL,,
,,,C[C@]1(Cn2ccnn2)[C@H](C(=O)O)N2C(=O)C[C@H]2S1(=O)=O [TAZOBACTAM],,,,,,,,,130 nM,1800 nM
,,,CC1(C)S[C@@H]2[C@H](NC(=O)[C@H](C(=O)O)c3ccsc3)C(=O)N2[C@H]1C(=O)O [TICARCILLIN],> 2050 µg/mL,> 2050 µg/mL,> 2050 µg/mL,> 2050 µg/mL,> 2050 µg/mL,> 2050 µg/mL,2 µg/mL,2 µg/mL,,

# Reference: ChEMBL document CHEMBL1137638, “TEM-158 (CMT-9), a new member of the CMT-type extended-spectrum beta-lactamases” (Antimicrob Agents Chemother, 2007)
